Several values for one entry are separate records, joined by “and”; a condition that tells them apart may be missing. Equal values may be shown once. Read-outs that look alike come from different tables or passages of the source.
How the values were obtained:
RPMI 8226 = assay: Cell growth inhibition assay (resazurin, 48 h); details: for % cytotoxicity: RPMI 8226
Description: (§1) RPMI 8226 (CCL-155), HT-29 (HTB-38), and B16-F10 (CRL-6475) cells were purchased from ATCC. RPMI 8226 cells were maintained in RPMI 1640 media supplemented with 10% (v/v) FBS, 2 mM L-glutamine, 1 mM sodium pyruvate and Penicillin/Streptomycin at 100 IU/ml and 100 μg/ml, respectively. HT-29 cells were maintained in McCoys 5A supplemented with 10% (v/v) FBS, 2 mM L-glutamine, 1 mM sodium pyruvate, 1% (v/v) non-essential amino acids, 10 mM HEPES and Penicillin/Streptomycin at 100 IU/ml and 100 μg/ml, respectively. B16-F10 cells were maintained in DMEM supplemented with 10% (v/v) FBS, 2 mM L-glutamine, 10 mM HEPES and Penicillin/Streptomycin at 100 IU/ml and 100 μg/ml, respectively.
(§2) RPMI 8226 cells were seeded at 2×10^4 cells/well in 90 μl RPMI media containing 10% (v/v) FBS or 1% (v/v) FBS into 96 well black-walled, clear-bottom tissue culture plates. […] Formulae II-16, II-17 and Formula II-18 were serially diluted in media containing 1% or 10% FBS and added in triplicate to the test wells. […] The final concentration of Formula II-18 ranged from 2 μM to 630 pM.

HEK293 = assay: Cell growth inhibition assay (resazurin, 48 h); type: cell-based; details: Homo sapiens, HEK293, 48 h
[1] = biological target: T1, human erythrocyte proteasomes, Caspase-like activity (Homo sapiens, UniProt P28072); assay: Caspase-like activity of human erythrocyte proteasomes; type: biochemical
T1 construct: from tissue; host or cells: human erythrocytes

MIA PaCa-2 = assay: Cell growth inhibition assay (resazurin, 48 h); type: cell-based; details: Homo sapiens, MIA PaCa-2, 48 h
DU 145 = assay: Cell growth inhibition assay (resazurin, 48 h); type: cell-based, human
U266 = assay: Cell growth inhibition assay (resazurin, 48 h); type: cell-based; details: Homo sapiens, U-266, 48 h, U266, 48 h
PC-3 = assay: Cell growth inhibition assay (resazurin, 48 h)
Cathepsin B = Cathepsin B (Homo sapiens, UniProt P07858); assay: Inhibition of Cathepsin B; type: biochemical
[2] = Maximum tolerated dose determination in female BALB/c mice; type: in vivo, mouse
Source text: In vivo studies were designed to determine the MTD of Salinosporamide A when administered intravenously to female BALB/c mice.
Animals were observed daily for clinical signs and were weighed individually twice weekly until the end of the experiment (maximum of 14 days after the last day of dosing).

OVCAR-3 = assay: Cell growth inhibition assay (resazurin, 48 h); type: cell-based, human; details: OVCAR-3, 48 h
LogD7.4 determination = details: pH 7.4
Source text: (§3) These studies consisted of solubility assessment, LogD^7.4 determination and a preliminary screen to detect cytochrome P450 enzyme inhibition.

CYP2C19 = CYP2C19 (Homo sapiens, UniProt P33261); assay: Preliminary P450 inhibition screen; details: tested at 10 μM
Source text: as §3

CYP2D6 = CYP2D6 (Homo sapiens, UniProt P10635); assay: Preliminary P450 inhibition screen; details: tested at 10 μM
Source text: as §3

CYP1A2 = CYP1A2 (Homo sapiens, UniProt P05177); assay: Preliminary P450 inhibition screen; details: tested at 10 μM
Source text: as §3

CYP2C9 = CYP2C9 (Homo sapiens, UniProt P11712); assay: Preliminary P450 inhibition screen; details: tested at 10 μM
Source text: as §3

CYP3A4 = CYP3A4 (Homo sapiens, UniProt P08684); assay: Preliminary P450 inhibition screen; details: tested at 10 μM
Source text: as §3

[3] = system: 60 human tumor cell lines; assay: NCI screening panel of 60 human tumor cell lines (sulforhodamine B)
RPMI 8226 cells = assay: PARP and Pro-Caspase 3 cleavage in RPMI 8226 cells (western blot); type: cell-based, human; details: 100 nM; 0, 8 or 24 hours
Description: (§4) Total protein lysates were made and 20 μg of the lysates were then resolved under reducing/denaturing conditions and blotted onto nitrocellulose. The blots were then probed with anti-PARP or anti-caspase 3 antibodies followed by stripping and reprobing with an anti-actin antibody.
25 μg of the lysates were then resolved under reducing/denaturing conditions and blotted onto nitrocellulose. The blots were then probed with anti-PARP or anti-caspase 3 antibodies followed by stripping and reprobing with an anti-actin antibody.

[4] = biological target: T2, human erythrocyte proteasomes, Trypsin-like activity (Homo sapiens, UniProt Q99436); assay: Trypsin-like activity of human erythrocyte proteasomes; type: biochemical
T2 construct: from tissue; host or cells: human erythrocytes

B16-F10 = assay: Cell growth inhibition assay (resazurin, 48 h); type: cell-based, mouse; details: B16-F10, 48 h
Description: as §1, §2

MDA-MB-231 = assay: Cell growth inhibition assay (resazurin, 48 h); type: cell-based, human; details: MDA-MB-231, 48 h
CCD-27sk = assay: Cytotoxic activity, 48 h, normal human fibroblasts; type: cell-based
MES-SA/Dx5 = assay: Cell growth inhibition assay (resazurin, 48 h)
Description: Concentrations ranging from 6.32 μM to 2 nM were tested for II-2 and II-4.
The multidrug resistant MES-SA/Dx5 tumor cell line was derived from the human uterine sarcoma MES-SA tumor cell line and expresses elevated P-Glycoprotein (P-gp), an ATP dependent efflux pump.

PC-3 cells = assay: PARP and Pro-Caspase 3 cleavage in PC-3 cells (western blot); type: cell-based, human; details: 100 nM; 0, 8 or 24 hours
Description: as §4

Sequence of CYP3A4 (P08684 whole entry): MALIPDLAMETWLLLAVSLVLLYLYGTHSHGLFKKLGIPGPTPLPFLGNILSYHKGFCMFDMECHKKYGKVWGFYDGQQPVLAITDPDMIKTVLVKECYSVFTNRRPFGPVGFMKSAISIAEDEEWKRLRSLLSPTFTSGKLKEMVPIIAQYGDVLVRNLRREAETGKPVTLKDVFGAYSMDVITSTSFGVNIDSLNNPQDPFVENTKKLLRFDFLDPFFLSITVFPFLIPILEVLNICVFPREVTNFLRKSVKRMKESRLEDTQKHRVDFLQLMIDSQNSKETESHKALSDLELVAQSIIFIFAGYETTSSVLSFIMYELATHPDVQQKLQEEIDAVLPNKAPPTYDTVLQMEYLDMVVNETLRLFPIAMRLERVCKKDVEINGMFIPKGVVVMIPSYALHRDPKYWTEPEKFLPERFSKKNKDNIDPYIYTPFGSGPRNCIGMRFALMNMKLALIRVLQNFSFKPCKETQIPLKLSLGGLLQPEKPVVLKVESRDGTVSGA
Sequence of CYP2C9 (P11712 whole entry): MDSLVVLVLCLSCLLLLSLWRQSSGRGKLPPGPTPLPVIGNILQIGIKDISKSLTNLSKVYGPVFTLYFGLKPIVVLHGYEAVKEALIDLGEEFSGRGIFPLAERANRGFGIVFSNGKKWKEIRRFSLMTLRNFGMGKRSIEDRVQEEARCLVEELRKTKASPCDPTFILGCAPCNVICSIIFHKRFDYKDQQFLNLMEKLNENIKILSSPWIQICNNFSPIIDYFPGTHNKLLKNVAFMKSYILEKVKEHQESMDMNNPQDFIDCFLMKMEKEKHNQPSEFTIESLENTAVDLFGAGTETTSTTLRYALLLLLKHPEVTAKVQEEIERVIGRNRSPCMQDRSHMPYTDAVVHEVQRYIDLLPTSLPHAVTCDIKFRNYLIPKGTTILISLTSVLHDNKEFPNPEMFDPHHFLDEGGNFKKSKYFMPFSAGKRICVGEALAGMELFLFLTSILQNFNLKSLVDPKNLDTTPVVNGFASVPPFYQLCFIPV
Sequence of CYP2C19 (P33261 whole entry): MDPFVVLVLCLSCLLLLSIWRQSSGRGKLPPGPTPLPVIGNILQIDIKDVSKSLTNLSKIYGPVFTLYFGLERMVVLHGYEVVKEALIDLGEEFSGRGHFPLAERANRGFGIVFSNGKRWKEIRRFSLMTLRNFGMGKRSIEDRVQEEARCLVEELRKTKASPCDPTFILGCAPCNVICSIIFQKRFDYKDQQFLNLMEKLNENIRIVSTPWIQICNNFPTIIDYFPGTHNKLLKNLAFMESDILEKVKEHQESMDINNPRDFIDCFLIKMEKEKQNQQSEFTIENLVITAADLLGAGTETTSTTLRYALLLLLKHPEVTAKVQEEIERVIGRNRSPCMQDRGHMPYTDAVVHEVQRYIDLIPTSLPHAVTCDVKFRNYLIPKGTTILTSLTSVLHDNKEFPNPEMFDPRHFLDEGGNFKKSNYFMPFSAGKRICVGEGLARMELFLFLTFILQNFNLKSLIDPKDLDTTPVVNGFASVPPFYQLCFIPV
Sequence of CYP1A2 (P05177 whole entry): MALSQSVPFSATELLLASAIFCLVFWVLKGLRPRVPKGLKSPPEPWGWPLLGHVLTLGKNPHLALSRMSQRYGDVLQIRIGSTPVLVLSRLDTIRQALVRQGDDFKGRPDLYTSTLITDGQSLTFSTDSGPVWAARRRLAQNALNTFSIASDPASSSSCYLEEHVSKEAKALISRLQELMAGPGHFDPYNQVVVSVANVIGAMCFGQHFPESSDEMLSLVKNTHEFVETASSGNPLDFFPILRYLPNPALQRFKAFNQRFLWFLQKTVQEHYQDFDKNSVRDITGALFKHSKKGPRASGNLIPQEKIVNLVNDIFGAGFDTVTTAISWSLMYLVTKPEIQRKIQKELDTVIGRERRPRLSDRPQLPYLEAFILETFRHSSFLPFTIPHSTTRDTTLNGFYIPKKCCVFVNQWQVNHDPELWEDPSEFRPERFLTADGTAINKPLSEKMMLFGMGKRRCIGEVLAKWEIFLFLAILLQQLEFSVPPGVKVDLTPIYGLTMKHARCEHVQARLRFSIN
Sequence of CYP2D6 (P10635 whole entry): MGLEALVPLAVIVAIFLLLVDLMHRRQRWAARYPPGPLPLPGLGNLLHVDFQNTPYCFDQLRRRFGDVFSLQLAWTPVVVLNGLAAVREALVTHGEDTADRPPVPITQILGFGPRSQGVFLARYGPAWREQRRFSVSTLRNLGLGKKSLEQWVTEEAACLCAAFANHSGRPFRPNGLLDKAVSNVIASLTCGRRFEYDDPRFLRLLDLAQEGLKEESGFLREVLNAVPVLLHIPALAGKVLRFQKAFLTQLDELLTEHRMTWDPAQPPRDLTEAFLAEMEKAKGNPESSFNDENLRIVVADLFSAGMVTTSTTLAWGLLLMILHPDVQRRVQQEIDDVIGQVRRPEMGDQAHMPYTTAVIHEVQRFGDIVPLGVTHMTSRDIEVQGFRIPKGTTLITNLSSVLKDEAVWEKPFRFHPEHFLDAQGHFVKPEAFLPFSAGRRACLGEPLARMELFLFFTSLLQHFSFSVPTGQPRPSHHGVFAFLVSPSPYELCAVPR

Q: Which EC50 (RPMI 8226; Homo sapiens, RPMI-8226, 48 h, RPMI 8226, 48 h) does the source give for `C[C@@]12OC(=O)[C@]1([C@@H](O)[C@@H]1C=CCCC1)NC(=O)[C@@H]2CCCl` [Formula II-16, Salinosporamide A] here?
A: 0.0086 ± 0.0019 µM

Q: And the “% cytotoxicity” value (RPMI 8226; listed as II-16)?
A: 94 ± 0%

Q: And the “% cytotoxicity” value (RPMI 8226; listed as Salinosporamide A)?
A: 94 ± 1%

Q: And the EC50 (HEK293)?
A: 0.047 µM

Q: And the EC50 [1]?
A: ~0.39 µM

Q: What about the EC50 (MIA PaCa-2) of the same molecule?
A: 0.046 µM

Q: And the EC50 (RAW264.7 cells)?
A: 0.0036 µM

Q: What about the “increase in the viability of LeTx-treated cells compared to LeTx treatment alone” value (RAW264.7 cells) of the same molecule?
A: 10 fold

Q: What about the “% cytotoxicity” value (DU 145; DU 145) of the same molecule?
A: 75 ± 4%

Q: What about the EC50 (DU 145; Homo sapiens, DU 145, 48 h) of the same molecule?
A: 0.037 ± 0.01 µM

Q: And the EC50 (U266)?
A: 0.0047 ± 0.0007 µM

Q: What about the “% cytotoxicity” value (PC-3; PC-3) of the same molecule?
A: 88% and 89%

Q: What about the EC50 (PC-3; PC-3, 48 h) of the same molecule?
A: 0.064 ± 0.026 µM

Q: What about the EC50 (Cathepsin B) of the same molecule?
A: > 200 µM

Q: What about the “well tolerated dose, daily for five consecutive days” value ([2]; i.v. qdx5, female BALB/c mice) of the same molecule?
A: up to 0.1 mg/kg

Q: What about the “tolerated single intravenous dose” value ([2]; qdx1, female BALB/c mice) of the same molecule?
A: up to 0.25 mg/kg

Q: And the EC50 (OVCAR-3; Homo sapiens)?
A: 0.069 µM

Q: What about the EC50 (OVCAR-3) of the same molecule?
A: 0.049 ± 0.031 µM

Q: And the “% cytotoxicity” value (HL-60; HL-60)?
A: 88% and 91%

Q: And the EC50 (HL-60; HL-60, 48 h)?
A: 0.03 µM

Q: What about the LogD7.4 (LogD7.4 determination) of the same molecule?
A: 2.4

Q: What about the “inhibition of CYP2C19” value (CYP2C19) of the same molecule?
A: 22%

Q: What about the “inhibition of CYP2D6” value (CYP2D6) of the same molecule?
A: 19%

Q: And the “inhibition of CYP1A2” value (CYP1A2)?
A: 3%

Q: And the “inhibition of CYP2C9” value (CYP2C9)?
A: 6%

Q: What about the “inhibition of CYP3A4” value (CYP3A4) of the same molecule?
A: 6%

Q: What about the GI50 ([3]; 60 cell, 48 h, read-out: mean GI50) of the same molecule?
A: < 0.01 µM

Q: And the CC50 ([3]; SK-MEL-28, read-out: LC50)?
A: < 0.01 µM

Q: And the CC50 ([3]; read-out: LC50)?
A: < 0.01 µM

Q: What about the “cleavage of PARP and Pro-caspase 3” value (RPMI 8226 cells) of the same molecule?
A: cleavage of PARP and Pro-caspase 3 in a time-dependent manner

Q: What about the EC50 [4] of the same molecule?
A: ~0.009 µM

Q: What about the EC50 (B16-F10) of the same molecule?
A: 0.047 ± 0.02 µM

Q: And the EC50 (B16-F10; Mus musculus)?
A: 0.033 µM

Q: What about the EC50 (MDA-MB-231; Homo sapiens) of the same molecule?
A: 0.067 µM

Q: And the EC50 (MDA-MB-231)?
A: 0.087 ± 0.04 µM

Q: And the EC50 (CCD-27sk)?
A: 0.196 µM

Q: And the EC50 (MES-SA/Dx5; Homo sapiens, MES-SA/Dx5, 48 h)?
A: 0.023 ± 0.001 µM

Q: And the “% cytotoxicity” value (MES-SA/Dx5; MES-SA/Dx5)?
A: 92 ± 2%

Q: And the “cleavage of PARP” value (PC-3 cells)?
A: cleavage of PARP is noticeable at 24 hours
